“Also recorded” adds a separate entry of the source.
System: mouse primary chondrocytes
Experiment: RT-qPCR gene expression in mouse primary chondrocytes treated with 3TC or FTC at various dosages
Format: cell-based
Description: Rib cages were sterilely isolated from neonatal mice (within 7-day-old) of desired genotypes and rinsed with HBSS for five times. To remove unspecific tissues, rib cages were digested in Collagenase D (3 μg/mL, Roche, Cat. 11088882001, Mannheim, Germany) for 2-4 hrs at 37° C. and rinsed with HBSS (Gibco®, Grand Island, N.Y. 14072 USA) for five times to remove detached unspecific tissues. To detach chondrocytes from rib cages, the samples underwent secondary digestion in Collagenase D (3 μg/mL) for at least 4 hrs at 37° C. with constant agitation (200 rpm). Detached chondrocytes were pelleted to remove excessive Collagenase D and resuspended in complete medium of DMEM (Gibco®, Grand Island, N.Y. 14072 USA) which contains 10% FBS, 100 U/mL penicillin and 100 μg/mL streptomycin (Gibco®, Grand Island, N.Y. 14072 USA). Growth plate PCs were grown at 37° C. in an atmosphere of 5% CO2. The media was changed on the following day to remove remaining Collagenase D and every 3 days thereafter. Similarly, articular cartilages were sterilely isolated under dissection microscope from neonatal mice (within 7-day-old) of desired genotypes and rinsed with HBSS for five times. In brief, the skins of hindlimbs were removed and transections on Ilia and muscles around hip joints were made to detach hindlimbs from torsi, then transferred to a petri dish. Under a dissection microscope placed in a cell culture hood, soft tissues were cleared while knee and hip joints were exposed. Femur heads could be easily peeled off whilst a fine cut of epiphyses based on vascularization were made to isolate articular cartilage from secondary ossification center. Beyond that, isolated tissues were minced into finer fragments and then put together before undergoing HBSS rinse and subsequent Collagenase D digestion. To remove unspecific tissues, articular cartilages were minced and digested in Collagenase D (3 μg/mL) for 2 hrs at 37° C. and rinsed with HBSS for five times to remove detached unspecific tissues. To detach chondrocytes from cartilage matrix, the samples underwent secondary digestion in Collagenase D (3 μg/mL) for at least 4 hrs at 37° C. with constant agitation (200 rpm). Detached chondrocytes were pelleted to remove excessive Collagenase D and resuspended in complete medium of DMEM which contains 10% FBS, 100 U/mL penicillin and 100 μg/mL streptomycin. Articular PCs were grown at 37° C. in an atmosphere of 5% CO2. The media was changed on the following day to remove remaining Collagenase D and every 3 days thereafter. Both miRNA and mRNA were extracted using miRNeasy Mini Kit (Qiagen®, Germantown, Md., USA) and reversely transcribed using […] (Qiagen®, Germantown, Md., USA) according to manufacturer's instruction. qPCR was performed using SYBR Green PCR master mix (Qiagen®, Germantown, Md., USA) on a Bio-Rad CFX96 real-time PCR detection system (Bio-Rad®, Hercules, Calif., USA). Amplification conditions are as follows: 95° C. for 10 min, 40 cycles of 95° C. for 10'', 55° C. for 30'', and 72° C. for 30''. 18S ribosomal or GAPDH RNA was used as an internal control gene to normalize the mRNAs level. The ubiquitously expressed snRNA U6 was used as an endogenous control for miRNAs level. […] The primers for miR-365 were purchased from Qiagen. Fold changes of mRNA and miRNAs were calculated by the 2^^(ΔΔCt) method and normalized to 18S/GAPDH or U6 snRNA, respectively.

[1] = mouse primary chondrocytes, RNA level, various dosages
[2] = mouse chondrocytes, at lower than 100 μM concentrations

| SMILES | Acan expression [1] | Adamts5 expression [1] | Col2 (Col2a1) expression [1] | Col10 (Col10a1) expression [1] | Ifn-α (Inf-α) expression [1] | Line-1 expression [1] | Mmp13 expression [1] | Acan levels [2] | Col2a1 levels [2] | Mmp3 expression [1] | Nlrp3 expression [1] | P2rx7 expression [1] |
| --- | --- | --- | --- | --- | --- | --- | --- | --- | --- | --- | --- | --- |
| Nc1ccn([C@@H]2CS[C@H](CO)O2)c(=O)n1 [3TC, lamivudine] | stimulated | suppresses; also recorded: inhibited | promotes; also recorded: stimulated | suppresses; also recorded: inhibited | suppresses | suppresses; also recorded: inhibited | inhibited |  |  |  |  |  |
| Nc1nc(=O)n([C@@H]2CS[C@H](CO)O2)cc1F [FTC, 2′,3′-dideoxy-5-fluoro-3′-thiacytidine] | promotes | induces | promotes | induces | suppresses; also recorded: significantly inhibited | suppresses; also recorded: significantly inhibited | induces | increased | increased | induces | suppresses; also recorded: significantly inhibited | suppresses; also recorded: significantly inhibited |
